Test results as given in a melting point compilation (Tetko et al.; mined from patent text by program, amines drawn as free bases though some values may be those of a salt).

melting point [°C] | SMILES
139 to 140 | CC(C)CN1C(=O)CCC(c2ccccc2Cl)c2ccccc21 (stereo not drawn)
> 280 | O=C1c2c(c(=O)n3nc(-c4ccccc4)cc3n2CC(=NO)c2ccccc2)CN1C1CCCCC1
251 to 252 | CCCn1c(=O)c2[nH]c(N3CCOCC3)nc2n(CCC)c1=O
229 to 230 | N#Cc1cccc(NC(=O)c2cc(-c3ccc(F)cc3F)ccc2O)c1
72 to 75 | CCCC(=O)c1ccc(N(CCO)CCO)cc1
188 to 189 | Cc1nc(COc2cc(N)c(Cl)cc2C(=O)O)cs1
61 to 62 | COc1ccc(C=CC(=O)C2C(=O)CCC2=O)cc1O
145 to 147 | O=C(C(=O)N1CCC(Oc2cccc(Cl)c2)CC1)c1c[nH]c2ccccc12
150 to 153 | C[C@H](Nc1nc(Nc2cccc(NS(C)(=O)=O)c2)nc2[nH]cnc12)C(C)(C)C
156 | CC(=O)c1sccc1S(=O)(=O)N(C)c1cccc2cc(-c3nccs3)[nH]c12
80 to 82 | Cc1ccc(C=Cc2ccccc2C(=O)O)cc1
215 | CS(=O)c1cc(O)ccc1-c1nc2cnccc2[nH]1 (stereo not drawn)
120 | COCCc1nc(-c2ccc(C(F)(F)F)cc2)ncc1COc1ccc(OC(C)(C)C(=O)O)c(C)c1
166 | CN1CCN(C(=O)OC2C3=C(SCCS3)C(=O)N2c2ccccc2)CC1 (stereo not drawn)
180 to 181 | NS(=O)(=O)c1ccc(CC(=O)C=CC(=O)O)cc1
201 to 202 | CC(C)n1nc(-c2nc(C#N)c(C#N)nc2-c2ccccc2)ccc1=O
131 to 132 | CCOC(=O)/C=C/c1cn(-c2ccc(C(F)(F)F)cn2)nc1C
122 | COCS[C@H](C)[C@](O)(Cn1cncn1)c1ccc(Cl)cc1
> 300 | CCCn1cc2c(C3C(=O)Nc4ccc(Br)cc43)nc(NCCC(F)(F)F)nc2n1 (stereo not drawn)
162 | O=C(CN1C(=O)c2ccccc2C1=O)c1ncc(C(F)(F)F)cc1Cl
100 to 102 | CN(C=O)c1ccccc1C(=O)COC(=O)c1ccccc1
130 to 132 | COC1=C(OC)C(=O)C2=C(CCC(CC(=O)O)CC2)C1=O
150 to 156 | CC1CCC2C3CCC4CC(O)CCC4(C)C3C(N(C)C)CC12C (stereo not drawn)
282 to 283 | N#Cc1ccc2c(c1)S(=O)(=O)c1ccccc1C2=O

melting point [°C] | SMILES
237 to 238 | CCCN1C(=O)C2(c3ccc([N+](=O)[O-])cc3)CC(c3ccc([N+](=O)[O-])cc3)(C2)C1=O
216 to 217 | Cc1ccc(Cn2c3c(c4cc(-c5cccc(C)c5)ccc42)C(=O)C(=O)OC3)cc1
210 | Cc1nnc(-c2ccnc3[nH]c(CCc4ccccc4)cc23)o1
224 to 225 | CCCn1c(=O)c2c(nc(/C=C/c3cc(OC(C)=O)cc(OC(C)=O)c3)n2C)n(CCC)c1=O
136 to 138 | COc1ccc2c(c1)NC(=O)C(N=[N+]=[N-])CC2 (stereo not drawn)
90 to 95 | COC(=O)c1ccc(OCCNC(=O)C2Cc3ccccc3N2S(=O)(=O)c2ccc(-c3ccc(F)cc3)cc2)c(C(F)(F)F)c1 (stereo not drawn)
73 to 75 | COC(=O)C#CC(=O)c1cccc(Cl)c1
116 to 118 | CCCC(N(NC(=O)OC(C)(C)C)C(=O)c1cc(C)cc(C)c1)C(C)(C)C (stereo not drawn)
235 to 250 | Cc1nc(-c2ccc(C#N)cc2)sc1C(=O)O
227 to 230 | COc1ccc(C=C2c3ccccc3C(=O)c3ccccc32)cc1OCC(=O)O
176 to 178 | CCOCc1nc2c(N)nc3cc(Br)cnc3c2n1CC(C)(C)NC(=O)OC(C)(C)C
> 300 | C#CCc1c(O)nc(C)nc1O
84 | BrCc1nc(-c2ccccc2)cc2ccccc12
46.5 to 47.5 | CCOC(=O)c1c(C(F)(F)F)nc(C(F)(F)F)c(C(=O)OCC)c1OC
188 to 190 | COCCOc1cc2ncc(C#N)c(Nc3cc(OC)c(OC)c(OC)c3)c2cc1OC
55 to 56 | CCOC(=O)CN(CC(=O)OCC)C(=O)C(=O)c1ccc(OCCCCCCCCCCCCOc2ccccc2)cc1
104 to 105 | C=CC[C@H](C(=O)NC)c1ccc(Cl)c(Cl)c1
68 to 69 | COCCc1sc(C(O)(c2nc(C)c(CCOC)s2)C(F)(F)F)nc1C
158 to 160 | CCCCCC(=O)Nc1nc2cc(Cl)ccc2nc1NC(=O)CC
178 to 180 | CN(C)CCNc1ccc(NC(=O)Nc2ccc(Oc3ccccc3)cc2)cc1[N+](=O)[O-]
173 to 174 | Cc1cc(N(N)c2ccccc2)nc(N)n1
160 to 161 | COc1cc(COc2nn(Cc3ccccc3)cc2C(N)=O)ccc1OCc1nc(-c2ccco2)oc1C
96 to 98 | CC(C)Cc1cc(OCC(=O)N(C)C)c2[nH]nc(Nc3nccs3)c2c1
105 to 107 | CCOCn1c(Sc2ccc(Cl)c(Cl)c2)c(Br)c(C#N)c1-c1ccc(Cl)cc1

melting point [°C] | SMILES
> 260 | COc1ccc2c(NC(N)=O)c(C(=O)Nc3ccc(Cl)cc3Cl)oc2c1
141 to 143 | O=S1(=O)NCN(C2CCCCCCC2)c2cc(Cl)ccc21
294 to 296 | O=c1[nH]c2ncc(-c3ccc(-n4cccn4)cc3)nc2n1CC1CCOCC1
158 | Nc1cc(=O)n(Cc2ccc(I)cc2)[nH]1
113 to 115 | O=S(=O)(Nc1cccc(OCc2csc(-c3ccccc3)n2)c1)C(F)(F)F
178 | Nc1cccc(C(=O)N2CC3CC(CN(Cc4ccccc4)C3)C2)c1
159 to 161 | CON(C)Cc1nc2c(N)nc3cc(OCc4ccccc4)ccc3c2n1CC1CCOCC1
150 | COc1ccc(-c2ccc(S(=O)(=O)NCc3ccccn3)nc2)cc1
192 to 195 | NC(CN1C(=O)c2ccccc2C1=O)=NO
147 to 148 | Cc1oc(-c2ccccc2)nc1CCOc1ccc(Cn2cc(CCC(=O)O)c(-c3ccccc3)c2)cc1
93 to 94.5 | COc1ccc(OCc2ccccc2)c(C(=O)OCc2ccccc2)c1
150 to 152 | Cn1cc(-c2ccc3ncn(Cc4ccc5ncccc5c4)c3n2)cn1
133 to 135 | Cc1c(CP(=O)(OCCCl)OCCCl)cc(C(C)(C)C)c(O)c1C
95 to 97 | CN(C)C(=N)CSc1nnc(S)s1
149 to 151 | COC(=O)c1ccc(Cc2cn(C)c3ccc(CC(C)C(=O)O)cc23)c(OC)c1 (stereo not drawn)
129 to 130 | CCS(=O)(=O)c1ncc(S(N)(=O)=O)s1
73 to 76 | N#CC1Cc2ccc(N)cc2C1 (stereo not drawn)
123 to 125 | COC(=O)C(=O)c1ccc(OCCOc2ccc3ccccc3c2)cc1Cl
80 to 81 | CCCCCCCCCCCCCCNC(=O)c1cnccn1
108 to 109 | CCCc1c(OCCCCCCc2ccc(CCCCC(=O)O)cc2CCC(=O)O)ccc2c1OCCC2=O
112 to 115 | CN(C)CCc1[nH]c2ccc(Br)cc2c1CSc1ccccc1
153 | Nc1n[nH]c2cccc(I)c12
113 to 114 | Cc1cc(C)c2nsnc2c1N
173 to 174 | O=C(c1cccnc1)N1CCN=C1Nc1c(Cl)cccc1Cl

melting point [°C] | SMILES
130 to 132 | CS(=O)(=O)c1ccc(Oc2ccc(C(=O)c3ccccc3)cc2)nc1
223 to 225 | Nc1ccc(C2=NN=C(c3ccccn3)N(C(=O)c3ccccc3)N2)nc1
> 255 | N#Cc1cnc2sc(Br)cc2c1O
88 to 89 | CCCOc1ccccc1-c1nc2ccccc2c(=O)[nH]1
78 to 79 | COC(=O)c1cnc(Cl)c(Br)c1
80 to 81 | CSCCCNc1cn(-c2cccnc2)nc1Cl
140 to 142 | O=C1c2ccccc2S(=O)(=O)N1Cn1nnn(-c2ccccc2)c1=S
142 | Fc1ccc(-c2cn(C3CCCN4CCCCC34)nn2)cc1 (stereo not drawn)
148 | O=C1CCCN1c1ccc(N2C[C@H](CO)OC2=O)cc1
149 to 150 | Nc1ccc(CN2C(=O)[C@H]3CCC[C@H]3Nc3ccccc32)cc1 (relative stereo)
192 | CCS(=O)(=O)c1cc(C(=O)NCC2CCCN2CC2=CCCCC2)c(OC)cc1N (stereo not drawn)
246 to 248 | COc1ccc2c(c1)CCc1cc(=O)[nH]nc1-2
109 | CC1=CC(c2cccc(Cl)c2)C(c2cccs2)=NN1 (stereo not drawn)
195 to 197 | COc1nc2cc(Cl)ccc2c(=O)c2sccc12
101 to 104 | O=C(C=Cc1c(Cl)ccc(Cl)c1Cl)c1ccc(OC2CCCCO2)cc1 (stereo not drawn)
224 to 225 | CCOc1cc(Oc2ccc(S(C)(=O)=O)nc2)cc2cc(C3=NCC(CC(=O)NC)S3)[nH]c12 (stereo not drawn)
110 to 114 | CN1CCN(c2cc(Cl)cc3c2c(=O)n(Cc2ccc(F)cc2)c(=O)n3Cc2ccccc2)CC1
218 to 220 | O=C(Nc1nc2cnccc2s1)N1CCCC1
97 to 99 | COc1ccc(Cl)c([N+](=O)[O-])c1Cl
212 | CCn1c(=S)sc2c(=N)n(NC(N)=O)cnc21
101 to 102 | C=CCc1c(OC)c(C)c2c(c1OC(C)=O)C(=O)OC2
82 to 83 | N#CSc1ccc(C=O)cc1

SMILES | melting point [°C]
NCC(=O)NCC(=O)Nc1ccc([N+](=O)[O-])cc1C(=O)c1ccccc1 | 121 to 123
CCOC(=O)c1ccc2[nH]cc(C3=CCN(C)CC3)c2c1 | 249
CNC(=O)N1N=C(c2ccc(N)cc2)c2ccc(Cl)cc2CC1C (stereo not drawn) | 134 to 136
NN1CCN(CC(O)c2c[nH]c3ccccc23)CC1 (stereo not drawn) | 174 to 177
CC(=O)OC1CC2(C)C(=O)CCC2C2CCC3=CC(=O)C=CC3(C)C12F (stereo not drawn) | 177 to 178
Cc1cccc(NC(=O)NC2N=C(c3ccccc3F)c3ccccc3N(Cc3ccc4ccccc4n3)C2=O)c1 (racemic) | 224 to 225
Cc1cc2cn[nH]c2c(C(=O)NC(C)C)c1NC(=O)c1cc(Br)nn1-c1ncccc1Cl | 163 to 166
CC12CC(=O)C3C(CCC4CC(O)CCC43C)C1CCC2C(=O)CCc1ccccn1 (stereo not drawn) | 179 to 180
CCOc1c(SC(F)(F)F)c(C#N)nn1-c1c(Cl)cc(C(F)(F)F)cc1Cl | 106
